This note sets out measurements from article PMC10979003, “Development and crystal structures of a potent second-generation dual degrader of BCL-2 and BCL-xL” (Nature Communications, 2024).

Each structure is given as a SMILES string.

Experiment [1] deals with T1, HiBiT-BCL-xL (Homo sapiens, UniProt Q07817).
T1 construct: endogenous in cells; host or cells: HeLa (ATCC CCL-2), CRISPR-Cas9 HiBiT knock-in clone
Kind of experiment: HiBiT degradation assay, HiBiT knock-in BCL-xL HeLa cells. Type of experiment: cell-based. Here is the method: The Alt-R CRISPR RNA (crRNA):Alt-R trans-activating crRNA (tracrRNA) duplexes for targeting BCL-xL or BCL-2 were prepared by mixing 0.5 nmol crRNA and 0.5 nmol tracrRNA in 25 μL of Nuclease-Free Duplex Buffer (Integrated DNA Technologies, IDT) by incubation at 95 °C for 5 min and cooling to RT. Single-stranded ultramer DNA oligonucleotides (ssODN) (IDT) were used as the homology directed repair (HDR) donor templates. The sequences of gRNAs and ssODN templates are listed in Supplementary Table 2. Ribonucleoprotein (RNP) complexes with recombinant Streptococcus pyogenes Cas9 protein (IDT) and crRNA:tracrRNA duplex were assembled by incubating 100 pmol of Cas9 and 120 pmol of gRNA for 10–20 min at room temperature. HeLa (2 × 10^5) cells were resuspended in 10 μL of Neon^TM transfection system buffer R from the Neon^TM transfection system 10 mL kit (Thermo Fisher), and the RNP complex along with 100 pmol ssODN template were electroporated into HeLa cells with the Neon^TM transfection system (Thermo Fisher). After electroporation, HeLa cells were transferred to a 12-well plate for culturing. Edited pooled cells were analyzed for HiBiT insertion by assaying for luminescence using Nano-Glo® HiBiT lytic detection system (Cat #N3040, Promega) in a Biotek’s Synergy Neo2 multimode plate reader (Biotek) 48–72 h after electroporation and single clones were selected by serial dilution.
HeLa HiBiT-BCL-xL and HeLa HiBiT-BCL-2 cells (2 × 10^4/well in 80 μL DMEM) were seeded into white 96-well tissue culture plates and incubated overnight at 37 °C, 5% CO2. For dose curve testing, the following day, serial diluted compounds were added into the medium and then plates were incubated at 37 °C, 5% CO2, for 6 h. For time course testing, in the following day, compounds with indicated concentrations were added into the medium at different time points. After treatment, the luminescence signals were measured using Nano-Glo® HiBiT lytic detection system (Cat #N3040, Promega) in a Biotek’s Synergy Neo2 multimode plate reader (Biotek).
(In general: The HiBiT peptide binds its large partner to form an active luciferase.)

In experiment [2] the test system is HeLa cells. Kind of experiment: DIA proteomics in HeLa cells. Type of experiment: cell-based, human. Particulars: for Off-target effects (two proteomic analyses): TMT (Jurkat) and DIA (HeLa) proteomics. An excerpt:
Given the somewhat inconclusive nature of the TMT results, we made additional efforts to characterize the on-target and off-target effects of our BCL-xL and BCL-2 dual PROTACs using a different proteomics analysis technique, i.e. the Data-Independent Acquisition (DIA) proteomics approach. This approach can avoid the limitation of TMT-labeling deficiency for some proteins/peptides. Specifically, we conducted DIA proteomics profiling using HeLa cells because these cells are primarily dependent on MCL-1 for survival and thus resistant to apoptosis after BCL-xL and BCL-2 degradation. To our delight, we were able to identify over 7200 proteins, including both BCL-xL and BCL-2 (Supplementary Fig. 10d), using this method.
Cells were lysed in buffer containing 5% SDS/50 mM triethylammonium bicarbonate (TEAB) in the presence of protease and phosphatase inhibitors (Halt; Thermo Scientific) and nuclease (Pierce™ Universal Nuclease for Cell Lysis; Thermo Scientific). Aliquots corresponding to 100 µg protein (EZQ™ Protein Quantitation Kit; Thermo Scientific) were reduced with tris(2-carboxyethyl)phosphine hydrochloride (TCEP), alkylated in the dark with iodoacetamide and applied to S-Traps (mini; Protifi) for tryptic digestion (sequencing grade; Promega) in 50 mM triethylammonium bicarbonate (TEAB). Peptides were eluted from the S-Traps with 0.2% formic acid in 50% aqueous acetonitrile and quantified using Pierce™ Quantitative Fluorometric Peptide Assay (Thermo Scientific). Data-independent acquisition mass spectrometry (DIA-MS) was conducted on a Thermo Scientific Orbitrap Exploris 480 mass spectrometer. […] A pool was made of the three control (DMSO) samples, and 2-µg peptide aliquots were analyzed using gas-phase fractionation and 4-m/z windows (30k resolution for precursor and product ion scans) to create an empirically-corrected DIA chromatogram library[72] by searching against a Prosit-generated predicted spectral library[73] based on the UniProt_Human_ref 9606_20220216 protein sequence database (20,588 sequences; 11,394,277 residues). […]

T1 sequence (Q07817 whole entry): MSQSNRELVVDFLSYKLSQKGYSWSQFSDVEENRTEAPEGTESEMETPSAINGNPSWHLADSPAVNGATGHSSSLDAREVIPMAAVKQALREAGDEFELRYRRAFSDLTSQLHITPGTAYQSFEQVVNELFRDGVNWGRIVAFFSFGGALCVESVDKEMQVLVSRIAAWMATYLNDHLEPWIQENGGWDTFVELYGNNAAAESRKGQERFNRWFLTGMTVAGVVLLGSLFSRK

With `Cc1ncsc1-c1ccc([C@H](C)NC(=O)[C@@H]2C[C@@H](O)CN2C(=O)[C@@H](NC(=O)CN2CCN(CC(=O)N3CCN(C[C@]4(C)CCC(c5ccc(Cl)cc5)=C(CN5CCN(c6ccc(C(=O)NS(=O)(=O)c7ccc(N[C@H](CCN8C[C@@H]9C[C@H]8CO9)CSc8ccccc8)c(S(=O)(=O)C(F)(F)F)c7)cc6)CC5)C4)CC3)CC2)C(C)(C)C)cc1` [WH244], the results for the “Time to degrade 50% of BCL-xL” value in experiment [1] (10 nM compound) and in experiment [1] (100 nM compound) were ~ 219 min and ~ 45 min, respectively. For the same molecule, the “Potency for inducing degradation of BCL-xL (comparison)” value in experiment [1] (6 h treatment) is reported as “more potent than 753b”. In experiment [2] (HeLa cells), the “Degradation of BCL-xL and BCL-2 by DIA proteomics (comparison)” value was “superior efficacy in the degradation of both proteins”. The “Off-target effects (two proteomic analyses)” value in experiment [2] is listed as “limited off-target effects”.
As for `Cc1ncsc1-c1ccc(C(C)NC(=O)C2CC(O)CN2C(=O)C(NC(=O)CCCCCCC(=O)N2CCN(CC3(C)CCC(c4ccc(Cl)cc4)=C(CN4CCN(c5ccc(C(=O)NS(=O)(=O)c6ccc(NC(CCN7CCOCC7)CSc7ccccc7)c(S(=O)(=O)C(F)(F)F)c6)cc5)CC4)C3)CC2)C(C)(C)C)cc1` (centres unmarked) [753b], the “Time to degrade 50% of BCL-xL” value is on record as over 480 min in experiment [1] (10 nM compound) and ~ 84 min in experiment [1] (100 nM compound). Also, the “Off-target effects (two proteomic analyses)” value in experiment [2] was “limited off-target effects”.
